The values below come from US10538516B2, “Oxadiazole derivative and pharmaceutical containing same” (National Center for Geriatrics and Gerontology, priority 2015, dated 2020).

T1 sequence (P05067 672-711 limits assumed): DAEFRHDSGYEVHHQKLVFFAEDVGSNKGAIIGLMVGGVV

The first test addresses T1, GAβ-dependent amyloid fibril formation (Human Aβ1-40 + GM1-containing liposome) (Homo sapiens, UniProt P05067).
T1 construct: Human Aβ1-40 (cat. #4307-v, prepared by Peptide Institute); purchased Peptide Institute 4307-v
The experiment in a line: Thioflavin T (ThT) assay of GAβ-dependent amyloid fibril formation (Aβ1-40 with GM1-containing liposome). Conditions: @5 μM; read-out: ThT Inhibitory activity (% inhibition). In kind it is biochemical. In a few lines:
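Human Aβ1-40 (75 μM stock) pre-incubated 10 min at room temperature with compound (75 or 15 μM solution), then GM1-containing cholesterol/sphingomyelin liposome added and incubated 37° C, 18 hours. Fibrils quantified by ThT fluorescence (ex 430/em 490 nm, pH 8.5 glycine buffer); inhibition as ratio to compound-free control.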
Consider `O=C(N[C@@H](CO)c1nc(-c2ccc(OC(F)(F)F)cc2)no1)c1cccc(Cl)c1` [Compound 63, (S)-3-chloro-N-(2-hydroxy-1-[3-{4-(trifluoro-methoxy)phenyl}-1,2,4-oxadiazol-5-yl]ethyl) benzamide], for which the inhibition at 5 µM was 53%.

Still in this test, the particulars now being: @25 μM; read-out: ThT Inhibitory activity (% inhibition).
For `O=C(N[C@@H](CO)c1nc(-c2ccc(OC(F)(F)F)cc2)no1)c1cccc(Cl)c1` [Compound 63, (S)-3-chloro-N-(2-hydroxy-1-[3-{4-(trifluoro-methoxy)phenyl}-1,2,4-oxadiazol-5-yl]ethyl) benzamide], the inhibition at 25 µM worked out at 99%.

Still in this test, the particulars now being: inhibition rate against amyloid fibril formation, final concentration of the compound 25 μM; 25 µM.
For the molecule `O=C(c1ccc(Cl)cc1)N1C[C@H](O)C[C@H]1c1nc(-c2ccc(OC(F)(F)F)cc2)no1` [Compound 82, (4-chlorophenyl) ((2S,4R)-4-hydroxy-2-[3-{4-(trifluoro-methoxy)phenyl}-1,2,4-oxadiazol-5-yl]pyrrolidin-1-yl)methanone], the “Inhibitory activity ABC evaluation” value is on record as “C (the inhibition rate of less than 40% was evaluated as C)”.
The same measure, in the same setting: as for `O=C(NC(CO)c1nc(-c2ccc(C(F)(F)F)cc2)no1)c1ccc(F)cc1` (stereo in doubt) [Compound 152, 4-fluoro-N-[(1R)-2-hydroxy-1-{3-[4-(trifluoromethyl)phenyl]-1,2,4-oxa-diazol-5-yl}ethyl] benzamide], the entry is “B (40% or more and less than 80% were evaluated as B)”.

The same test, now with this note: inhibition rate against amyloid fibril formation, final concentration of the compound 25 μM; read-out: Inhibitory activity ABC evaluation.
For the molecule `N#Cc1ccc(C(=O)N[C@@H](CO)c2nc(-c3ccc(O)c(F)c3)no2)cc1` [Compound 100, (S)-4-cyano-N-(1-(3-(3-fluoro-4-hydroxyphenyl)-1,2,4-oxadiazol-5-yl)-2-hydroxy-ethyl)benzamide], the inhibition at 25 µM was 40 to 80%.
Still for that read-out and setting: as for `O=C(Cc1c[nH]c2ccccc12)NC(CO)c1nc(-c2ccc(C(F)(F)F)cc2)no1` (centres unmarked) [Compound 185, N-(2-hydroxy-1-{3-[4-(trifluoromethyl)phenyl]-1,2,4-oxadiazol-5-yl}ethyl)-2-(1H-indol-3-yl)acetamide], the figure is 40 to 80%; as for `O=C(N[C@H](CO)c1nnc(-c2ccc(OC(F)(F)F)cc2)o1)c1ccc(Cl)cc1` [Compound 107, (R)-4-chloro-N-(2-hydroxy-1-(5-(4-(trifluoro-methoxy)phenyl)-1,3,4-oxzdiazol-2-yl)ethyl)benzamide], 40 to 80%; as for `O=C(N[C@@H](CO)c1nc(-c2ccc(C(F)(F)F)cc2)no1)c1ccc(N2CCOCC2)cc1` [Compound 200, N-[(1S)-2-hydroxy-1-{3-[4-(trifluoromethyl)phenyl]-1,2,4-oxadiazol-5-yl}ethyl]-4-(morpholin-4-yl) benzamide], 40 to 80%.
Same read-out and setting: as for `O=C(N[C@@H](CO)c1nc(-c2ccc(CF)cc2)no1)c1ccccc1` [Compound 162, N-[(1S)-1-{3-[4-(fluoromethyl)phenyl]-1,2,4-oxadiazol-5-yl}-2-hydroxyethyl] benzamide], the figure is 40 to 80%.
On to `O=C1CC(c2nc(-c3ccc(OCF)cc3)no2)CN1c1ccc(Cl)cc1` (centres unmarked) [Compound 53, 1-(4-chlorophenyl)-4-[3-{4-(fluoromethoxy)phenyl}-1,2,4-oxadiazol-5-yl]pyrrolidin-2-one], for which the inhibition at 25 µM fell in the range of 40 to 80%.
Same read-out and setting: as for `CN(Cc1cccc(F)c1)C(=O)CCc1nc(-c2ccc(O)cc2)no1` [Compound 14, N-(3-fluorobenzyl)-3-{3-(4-hydroxyphenyl)-1,2,4-oxadiazol-5-yl}-N-methylpropanamide], the figure is less than 40%; as for `O=C(N[C@@H](CO)c1nc(-c2cccc(C(F)(F)F)c2)no1)c1cc(F)cc(Cl)c1` [Compound 222, 3-chloro-5-fluoro-N-[(1S)-2-hydroxy-1-{3-[3-(trifluoromethyl)phenyl]-1,2,4-oxadiazol-5-yl}ethyl]benzamide], greater than 80%.
On the same count and under the same terms, as for `CS(=O)(=O)Nc1ccc(-c2nnc([C@H](CO)NC(=O)c3ccc(Cl)cc3)o2)cc1` [Compound 105, (S)-4-chloro-N-(2-hydroxy-1-(5-(4-(methyl-sulfonamido)phenyl)-1,3,4-oxadiazol-2-yl)ethyl)benzamide], the figure is less than 40%; as for `O=C(N[C@@H](CO)c1nc(-c2c[nH]c3ccc(Br)cc23)no1)c1ccc(F)cc1` [Compound 247, N-[(1S)-1-[3-(5-bromo-1H-indol-3-yl)-1,2,4-oxadiazol-5-yl]-2-hydroxyethyl]-4-fluorobenzamide], 40 to 80%.
Same read-out and setting: under `O=C1CC(c2nc(-c3ccc(OC(F)(F)F)cc3)ns2)CN1c1ccc(Cl)cc1` (centres unmarked) [Compound 121, 1-(4-chlorophenyl)-4-{3-[4-(trifluoromethoxy)phenyl]-1,2,4-thiadiazol-5-yl}pyrrolidin-2-one] stands 40 to 80%.
In the case of `O=C1CC(CO)(c2nc(-c3ccc(O)c(F)c3)no2)CN1c1ccc(Cl)cc1` (centres unmarked) [Compound 90, 1-(4-chlorophenyl)-4-{3-(3-fluoro-4-hydroxyphenyl)-1,2,4-oxadiazol-5-yl}-4-(hydroxy-methyl)pyrrolidin-2-one], the inhibition at 25 µM lay in the range of 40 to 80%.
On the same count and under the same terms, under `O=C1CC(c2nnc(-c3ccc(OC(F)(F)F)cc3)o2)CN1c1ccc(Cl)cc1` (centres unmarked) [Compound 103, 1-(4-chlorophenyl)-4-{5-[4-(trifluoromethoxy)phenyl]-1,3,4-oxadiazol-2-yl}pyrrolidin-2-one] stands 40 to 80%; under `O=C(N[C@@H](CO)c1nc(-c2ccc(-n3cccn3)cc2)no1)c1ccccc1` [Compound 180], less than 40%; under `O=C(NC1(c2nc(-c3ccc(OC(F)(F)F)cc3)no2)CCCC1)c1ccc(F)cc1` [Compound 30, 4-fluoro-N-(1-[3-{4-(trifluoromethoxy)phenyl}-1,2,4-oxadiazol-5-yl]cyclopentyl) benzamide], less than 40%.
Turning to `CN(C)c1ccc(-c2noc([C@H](CO)NC(=O)c3ccccc3)n2)cc1` [Compound 150, N-[(1S)-1-{3-[4-(dimethylamino)phenyl]-1,2,4-oxadiazol-5-yl}-2-hydroxyethyl] benzamide], the inhibition at 25 µM was greater than 80%.
For the molecule `NC[C@H](NC(=O)c1ccccc1)c1nc(-c2ccc(OC(F)(F)F)cc2)no1` [Compound 149, N-[(1S)-2-amino-1-{3-[4-(trifluoromethoxy)phenyl]-1,2,4-oxa-diazol-5-yl}ethyl] benzamide], the inhibition at 25 µM was less than 40%.
The same measure, in the same setting: as for `O=C(N[C@@H](CO)c1nc(-c2ccc(C(F)(F)F)cc2)no1)c1ccc(Cl)cc1F` [Compound 236, 4-chloro-2-fluoro-N-[(1S)-2-hydroxy-1-{3-[4-(trifluoromethyl)phenyl]-1,2,4-oxadiazol-5-yl}ethyl]benzamide], the figure is greater than 80%.
Same read-out and setting: under `O=C(c1ccc(Cl)cc1)N1CC(c2nc(-c3ccc(OC(F)(F)F)cc3)no2)C1` [Compound 68, (4-chloro-phenyl)(3-[3-{4-(trifluoro-methoxy)phenyl}-1,2,4-oxadiazol-5-yl]azetidin-1-yl)methanone] stands 40 to 80%.
Turning to `COc1ccc(-c2noc([C@H](CO)NC(=O)c3ccccc3)n2)cc1F` [Compound 144, N-[(1S)-1-[3-(3-fluoro-4-methoxyphenyl)-1,2,4-oxadiazol-5-yl]-2-hydroxyethyl]benzamide], the inhibition at 25 µM was greater than 80%.
On the same count and under the same terms, under `O=C(NC(CNCCO)c1nnc(-c2ccc(OC(F)(F)F)cc2)o1)c1ccc(Cl)cc1` (centres unmarked) [Compound 119, 4-chloro-N-(2-((2-hydroxyethyl)amino)-1-(5-(4-(trifluoro-methoxy)phenyl)-1,3,4-oxadiazol-2-yl)ethyl) benzamide] stands 40 to 80%; under `CN(C)C(=O)C[C@H](NC(=O)c1ccc(Cl)cc1)c1nc(-c2ccc(OC(F)(F)F)cc2)no1` [Compound 87, (S)-4-chloro-N-(3-(dimethylamino)-3-oxo-1-[3-{4-(trifluoromethoxy)phenyl}-1,2,4-oxadiazol-5-yl]propyl) benzamide], 40 to 80%; under `O=C1CC(c2nc(-c3cccc(OC(F)(F)F)c3)no2)CN1c1ccc(Cl)cc1` (centres unmarked) [Compound 33], 40 to 80%.
Still for that read-out and setting: under `O=C(N[C@@H](CO)c1nc(-c2ccccc2C(F)(F)F)no1)c1ccccc1` [Compound 189, N-[(1S)-2-hydroxy-1-{3-[2-(trifluoromethyl)phenyl]-1,2,4-oxadiazol-5-yl}ethyl]benzamide] stands 40 to 80%; under `O=C(NC(CO)c1nc(-c2ccc(C(F)(F)F)cc2)no1)c1ccc2[nH]ccc2c1` (centres unmarked) [Compound 183, N-(2-hydroxy-1-{3-[4-(trifluoromethyl)phenyl]-1,2,4-oxadiazol-5-yl}ethyl)-1H-indole-5-carboxamide], greater than 80%.
Same read-out and setting: as for `O=C1CC(c2nc(-c3ccc(OC(F)F)cc3)no2)CN1c1ccc(Cl)cn1` (centres unmarked) [Compound 62, 1-(5-chloropyridin-2-yl)-4-{3-[4-(difluoromethoxy)phenyl]-1,2,4-oxadiazol-5-yl}pyrrolidin-2-one], the figure is 40 to 80%; as for `O=C(N[C@@H](CO)c1nc(-c2ccc(-c3ccccc3)s2)no1)c1ccc(F)cc1` [Compound 248, 4-fluoro-N-[(1S)-2-hydroxy-1-[3-(5-phenylthiophen-2-yl)-1,2,4-oxadiazol-5-yl]ethyl]benzamide], 40 to 80%.
Take `O=C(N[C@@H](CO)c1nc(-c2ccc(OC(F)(F)F)cc2)no1)c1cccc(Cl)c1` [Compound 63, (S)-3-chloro-N-(2-hydroxy-1-[3-{4-(trifluoro-methoxy)phenyl}-1,2,4-oxadiazol-5-yl]ethyl) benzamide]: the inhibition at 25 µM was greater than 80%.
Consider `O=C(N[C@@H](CO)c1nc(-c2ccc(Cl)[nH]2)no1)c1ccc(F)cc1` [Compound 251, N-[(1S)-1-[3-(5-chloro-1H-pyrrol-2-yl)-1,2,4-oxadiazol-5-yl]-2-hydroxyethyl]-4-fluorobenzamide], for which the inhibition at 25 µM is 40 to 80%.
Still for that read-out and setting: under `O=C(N[C@@H](CO)c1nc(-c2ccc(C(F)(F)F)cc2)no1)c1ccc(OC(F)(F)F)cc1` [Compound 199, N-[(1S)-2-hydroxy-1-{3-[4-(trifluoromethyl)phenyl]-1,2,4-oxadiazol-5-yl}ethyl]-4-(trifluoromethoxy) benzamide] stands greater than 80%; under `O=C(N[C@@H](CO)c1nc(-c2ccc3[nH]cc(F)c3c2)no1)c1ccc(F)cc1` [Compound 194, 4-fluoro-N-[(1S)-1-[3-(3-fluoro-1H-indol-5-yl)-1,2,4-oxadiazol-5-yl]-2-hydroxyethyl] benzamide], 40 to 80%.
